# Reference: US6956030B2, “Use of mometasone furoate for treating upper airway diseases” (Schering Corporation, priority 1994, dated 2005)
# Marks after values point to notes of the source that are not given here.
# Experiments:
# [1] = cited from earlier work; for efficacy in treating asthma in clinical trials: clinical trials / Phase II; for systemic side effects: in vivo
# [2] = of the inhalation dose; cited from earlier work
# plasma cortisol = experiment: Phase I rising single-dose safety and tolerance study, metered dose inhaler, 24-hour plasma cortisol; assay type: in vivo, healthy male volunteers
# Procedure: Several Phase I studies were conducted using mometasone furoate formulated for delivery as a suspension in a pressurized metered dose inhaler (MDI). In a randomized, third-party blinded, placebo-controlled rising single-dose safety and tolerance study, aerosolized mometasone furoate was administered by a metered dose inhaler to eight healthy male volunteers. Doses were administered at 11 p.m. and plasma cortisol concentrations were measured during the following 24-hour period.
# [3] = Drug metabolism/clinical pharmacology study: absorption and excretion of total radioactivity after ^3H-MF by various routes; assay type: in vivo, normal healthy male volunteers; settings: for AUC (1) of total radioactivity, dose normalized / Cmax of total radioactivity, dose normalized: based on dose normalized data; for percent of dose as tritiated water in the body: estimated from urinary distillation experiments
# Procedure: In addition, a single-dose absorption, excretion and metabolism study using 200 mcg of ^3H-mometasone furoate as the nasal spray formulation was conducted in 6 normal male volunteers. When systemic absorption (based on urinary excretion) was compared to an intravenously administered dose of ^3H-mometasone furoate, it was 8%.
# A drug metabolism and clinical pharmacology study was conducted by administering (by various routes) tritium-labeled mometasone furoate (“^3H-MF”) to 6 groups of 6 normal male volunteers in each group. Blood and urine samples were collected for measurement of total drug (including metabolites).
# The objectives of these studies in male volunteers were to determine the absorption, metabolism and excretion of ^3H-labeled mometasone furoate (“^3H-MF”) following administration by oral swallow as a solution and as an aqueous suspension of the monohydrate, by oral inhalation as a suspension from a standard metered dose inhaler (MDI) and from a metered dose inhaler containing a spacer device (Gentlehaler), by nasal inhalation as an aqueous suspension of the mometasone furoate monohydrate from a nasal spray unit and by intravenous injection as a solution.
# Thirty-six (n=6 per treatment group) normal healthy male volunteers between the ages of 19 and 40 yr. (average 29 yr.) having weights in accordance with current actuarial tables (+10%) were enrolled in these single dose studies. All subjects were determined to be in good health by their medical history, physical examinations, clinical and laboratory tests.
# (§1) Plasma, urine, expired air filters, Respirgard and fecal samples were collected and assayed for radioactivity content. The limit of quantitation (LOQ) for plasma radioactivity ranged from 0.103 to 0.138 ng eq/ml., except for the nasal spray treatment where the LOQ was 0.025 ng eq/ml. Selected plasma, urine and fecal samples were analyzed for metabolite profiles.
# Pharmacokinetics—The mean (n=6) plasma concentrations of total radioactivity are illustrated in Summary FIG. 1 and the mean (n=6) pharmacokinetic parameters derived from total plasma radioactivity are presented in Table 2.
# [4] = HPLC/radio-flow metabolite profiling of plasma, urine and fecal extracts after ^3H-MF; assay type: in vivo, normal healthy male volunteers
# Text: The substantial minimization of the systemic effect of mometasone furoate administered intranasally or by oral inhalation has been measured by High Performance Liquid Chromatography (HPLC) metabolite profiling of plasma radioactivity of mometasone furoate, its substantially complete (>98%) first-pass metabolism in the liver and by a minimal reduction in cortisol secretion levels.
# as §1
# Selected plasma, urine and fecal extracts were analyzed by high performance liquid chromatography (HPLC) with radio-flow monitoring to determine metabolite profiles. […] Approximately 1.5% of the 3 hr. plasma radioactivity was associated with parent drug indicating extensive first past metabolism and rapid inactivation by the liver. In contrast, following intravenous administration, approximately 39% of the 3 hr. plasma radioactivity was associated with parent drug. Approximately 12% and 33% of the 3 hr. plasma radioactivity was associated with parent drug following administration of the MDI and Gentlehaler, respectively. In general, the plasma concentrations of radioactivity following the nasal and oral suspension routes of administration were too low for metabolite profiling.
# Hydrolysis of plasma and urine was performed with an enzyme preparation containing both β-glucuronidase and aryl sulfatase. These experiments yielded modest changes in the HPLC metabolite profiles that were consistent with the hydrolytic release of conjugated metabolites.
structure (smiles),measurement,setting,value
CCS[C@]1(SC)CC[C@H]2[C@@H]3CCC4=CC(=O)C=C[C@]4(C)[C@@]3(F)[C@@H](O)C[C@@]21C [tipredane],efficacy in treating asthma in clinical trials,[1],have not demonstrated a level of efficacy in treating asthma which would be considered therapeutically useful
same,systemic side effects,[1],low systemic side effects
CCCC1O[C@@H]2C[C@H]3[C@@H]4CCC5=CC(=O)C=C[C@]5(C)[C@H]4[C@@H](O)C[C@]3(C)[C@]2(C(=O)CO)O1 (stereo partly shown) [budesonide],systemic bioavailability after oral ingestion,[2],greater than 10%
CCC(=O)OCC(=O)[C@@]1(OC(=O)CC)[C@@H](C)C[C@H]2[C@@H]3CCC4=CC(=O)C=C[C@]4(C)[C@@]3(Cl)[C@@H](O)C[C@@]21C [beclomethasone dipropionate],reduction of 24-hour area under the curve plasma cortisol profile (AUC 0-24) compared to placebo,plasma cortisol; single dose 1000 mcg by MDI at 11 p.m.,30%
same,reduction of 24-hour area under the curve plasma cortisol profile (AUC 0-24) compared to placebo,plasma cortisol; single dose 2000 mcg by MDI at 11 p.m.,38%
same,reduction of 24-hour area under the curve plasma cortisol profile (AUC 0-24) compared to placebo,plasma cortisol; single dose 4000 mcg by MDI at 11 p.m.,65%
C[C@@H]1C[C@H]2[C@@H]3CCC4=CC(=O)C=C[C@]4(C)[C@@]3(Cl)[C@@H](O)C[C@]2(C)[C@@]1(OC(=O)c1ccco1)C(=O)CCl [^3H-MF],"% Absorbed (AUC): radioactivity absorbed, dose normalized versus intravenous data",[3]; Gentlehaler,69* %
same,"% Absorbed (Urine): radioactivity absorbed, urinary excretion compared to the intravenous dose",[3]; Gentlehaler,67%
same,Feces (% dose): administered radioactivity excreted in feces through 168 hr,[3]; Gentlehaler,89%
same,U + F (% dose): total dose recovered in urine and feces through 168 hr,[3]; Gentlehaler,105%
same,Urine (% dose): administered radioactivity excreted in the urine through 168 hr,[3]; Gentlehaler,~16%
same,absorption of drug-derived radioactivity (dose normalized AUC and urinary excretion data),[3]; Gentlehaler,67-69%
same,AUC (1) of total radioactivity to infinity,[3]; Gentlehaler 0.40 mg,110 ng eq hr/ml
same,"AUC (1) of total radioactivity, dose normalized",[3]; Gentlehaler,275 ng eq hr/ml
same,"Cmax of total radioactivity, dose normalized",[3]; Gentlehaler,1.71 ng eq/ml
same,"% Absorbed (AUC): radioactivity absorbed, dose normalized versus intravenous data",[3]; MDI,23* %
same,"% Absorbed (Urine): radioactivity absorbed, urinary excretion compared to the intravenous dose",[3]; MDI,30%
same,Feces (% dose): administered radioactivity excreted in feces through 168 hr,[3]; MDI,86%
same,U + F (% dose): total dose recovered in urine and feces through 168 hr,[3]; MDI,94%
same,Urine (% dose): administered radioactivity excreted in the urine through 168 hr,[3]; MDI,~7%
same,absorption of drug-derived radioactivity (dose normalized AUC and urinary excretion data),[3]; MDI,23-30%
same,AUC (1) of total radioactivity to infinity,[3]; MDI 0.86 mg,81 ng eq hr/ml
same,"AUC (1) of total radioactivity, dose normalized",[3]; MDI,94 ng eq hr/ml
same,"Cmax of total radioactivity, dose normalized",[3]; MDI,0.93 ng eq/ml
same,tritium label exchanged with body water,"[3]; human, in vivo",less than 4%
same,Feces (% dose): administered radioactivity excreted in feces through 168 hr,[3]; intravenous,54%
same,U + F (% dose): total dose recovered in urine and feces through 168 hr,[3]; intravenous,78%
same,AUC (1) of total radioactivity to infinity,[3]; intravenous solution 1.03 mg,401 ng eq hr/ml
same,Cmax (C5min) of total radioactivity,"[3]; intravenous solution 1.03 mg, mean n=6",23.7 ng eq/ml
same,percent of dose as tritiated water in the body,[3]; intravenous,approximately 3.7%
same,Feces (% dose): administered radioactivity excreted in feces through 168 hr,[3]; nasal spray,78%
same,U + F (% dose): total dose recovered in urine and feces through 168 hr,[3]; nasal spray,80%
same,AUC (1) of total radioactivity to infinity,[3]; nasal spray 0.19 mg,BQL
same,Cmax of total radioactivity,"[3]; nasal spray 0.19 mg, LOQ 0.025 ng eq/ml",BQL**
same,Cmax of total radioactivity,"[3]; nasal spray 0.19 mg, LOQ 0.025 ng eq/ml, listed as 3H-mometasone furoate",below the limit of quantification
same,"% Absorbed (Urine): radioactivity absorbed, urinary excretion compared to the intravenous dose","[3]; nasal spray, listed as 3H-mometasone furoate",8%
same,"% Absorbed (AUC): radioactivity absorbed, dose normalized versus intravenous data",[3]; oral solution,122%
same,"% Absorbed (Urine): radioactivity absorbed, urinary excretion compared to the intravenous dose",[3]; oral solution,104%
same,Feces (% dose): administered radioactivity excreted in feces through 168 hr,[3]; oral solution,62%
same,U + F (% dose): total dose recovered in urine and feces through 168 hr,[3]; oral solution,87%
same,AUC (1) of total radioactivity to infinity,[3]; oral solution 1.03 mg,488 ng eq hr/ml
same,Cmax of total radioactivity,"[3]; oral solution 1.03 mg, mean n=6",4.8 ng eq/ml
same,percent of dose as tritiated water in the body,[3]; oral solution,~2.9%
same,Feces (% dose): administered radioactivity excreted in feces through 168 hr,[3]; oral suspension,73%
same,U + F (% dose): total dose recovered in urine and feces through 168 hr,[3]; oral suspension,75%
same,AUC (1) of total radioactivity to infinity,[3]; oral suspension 0.99 mg,BQL
same,Cmax of total radioactivity,"[3]; oral suspension 0.99 mg, LOQ 0.103 to 0.138 ng eq/ml",BQL
same,route of excretion of radioactivity,[3]; regardless of dosage form and route of administration,predominantly excreted in the feces
same,3 hr. plasma radioactivity associated with parent drug,[4]; Gentlehaler,~33%
same,urine metabolite profile,[4]; Gentlehaler,all of the radioactivity was associated with metabolites more polar than parent drug
same,3 hr. plasma radioactivity associated with parent drug,[4]; MDI,Approximately 12%
same,3 hr. plasma radioactivity associated with parent drug,[4]; intravenous,approximately 39%
same,urinary and fecal extract metabolite profile,[4]; intravenous and oral solution,all of the radioactivity was associated with metabolites more polar than parent drug
same,fecal extract metabolite profile,"[4]; nasal spray, oral suspension, MDI and Gentlehaler",presence primarily of mometasone furoate
same,3 hr. plasma radioactivity associated with parent drug,[4]; oral solution,Approximately 1.5%
same,plasma metabolite profile,[4]; oral solution,most of the plasma radioactivity was associated with metabolites more polar than the available standards
CCCC(=O)O[C@]1(C(=O)CSC(=O)CC)CC[C@H]2[C@@H]3CCC4=CC(=O)CC[C@]4(C)[C@H]3[C@@H](O)C[C@@]21C [butixocort propionate],efficacy in treating asthma in clinical trials,[1],some efficacy
same,systemic side effects,[1],low systemic side-effects
